Test results taken from US10258027B2, “Autodissemination of an insect-growth regulator for insect management” (Rutgers, The State University of New Jersey, priority 2010, dated 2019).
Where “and” joins values, the source holds several entries; their conditions need not be identical. Equal entries are not always repeated. Where two headings read alike, the source gives them in different places.

Assays:
Ae. albopictus [1] = test: Larvicidal LC50 of pyriproxyfen; details: unpublished data
[2] = tested on: 3rd instar Ae. albopictus; test: Room trial (31.1 m^3), single-phase station, larval bioassay; assay type: in vivo, Aedes albopictus
Description: In the room trial, the test arena was scaled-up to a larger area with dimensions of 2.1 (W)×2.6 (H)×5.7 (L) m (31.1 m^3). A station was placed in the center of the room and ovicups with oak infusion and ovistrips were positioned at each corner 30 cm from the walls. Fifty gravid females were introduced for a five day test. The ovistrips and eggs were discarded and the water from each container was tested for insecticidal activity by larval bioassay, with four additional untreated cups as controls. Environmental conditions of 26-28° C., 60-75% RH, and 16L:8D photoperiod. Inhibition of emergence in the cage and room trials was analyzed against their respective controls with a t-test (P≤0.05).
(§1) All insecticidal activity tests were conducted in adult emergence units—450 ml plastic containers with a screen-covered lid and 200 ml of water (water lost via evaporation was replaced before assay). Each container held twenty 3rd instar Ae. albopictus. Test containers were incubated at 26° C. and 16L:8D photoperiod. At 2-day intervals, ground rat chow (30 mg/L) was provided as food, water lost due to evaporation was replenished, dead and emerged individuals were removed, and successful adult emergence was recorded. Incomplete emergence or adults with attached exuviae were recorded as dead.

Aedes aegypti = details: cited from earlier work
Ae. albopictus [3] = test: Room assay (31 m^3), biphasic dual treatment ADS; assay type: in vivo, Aedes albopictus
Description: (§2) Larval bioassays for pyriproxyfen were conducted in adult emergence units (450 ml plastic Deli containers lid on) under the standard laboratory conditions as described above under the heading, Mosquito colony and maintenance. Each container received twenty early 3rd instar Ae. albopictus in 200 ml sample water. Larvae were inoculated gently using dropper before placing the lid on. Five slots (4 cm each) were cut into the lid with a clean blade for aeration. Larval food (30 mg yeast/L) was provided twice a week which was freshly prepared every time. An additional lab control group was setup in triplicate using […] water. The bioassays were conducted in the sequence of lab control and treatment to minimize the chance of contamination. Water lost due to the evaporation during bioassay was replenished. Adult emergence and pupal mortality were accessed after there was no live lava or pupa in the water. Incomplete emergence or adult with attached exuvia was recorded as pupal death. If lab control had mortality higher than 20% in larval or pupal stages, results were discarded and the experiment was repeated. The experiments were conducted under environmental conditions of 26-28° C., 60-75% RH and LD 16:8 h.
The test area was scaled up to a larger room (31 m^3) measuring 2.1 m in width, 5.7 m in length and 2.6 m in height. A station was placed in the center of the room and 10 Deli cups (450 mL, black painted from outside) containing 250 ml water were positioned 30 cm from the walls along each side of the room. Fifty gravid females were introduced for a 5-day test. The experiment was conducted under environmental conditions of 26-28° C., 60-75% RH and LD 16:8 h. The cups then were tested for pyriproxyfen activity using larval bioassay as described above. Ten additional untreated cups were included as controls. The pupal mortality in the room trials was analyzed against their respective controls with a t-test (P≤0.05).

container mosquitoes = details: modified sticky trap dusted with manually grained 5% pyriproxyfen powder; cited from earlier work
[4] = tested on: 3rd instar Ae. albopictus; test: Venereal transfer from contaminated males to females, larval bioassay; assay type: in vivo, Aedes albopictus; details: venereally acquired pyriproxyfen transferred to water-holding containers
Description: This experiment determined whether contaminated mosquitoes could transfer pyriproxyfen to uncontaminated individuals via mating behaviors. To ensure virginity, pupae were individually transferred to 50 ml centrifuge tubes until emergence, and then caged by gender before testing 5-7 days post-emergence. Adult males were exposed to pyriproxyfen-treated filter paper (8×10 cm Whatman No. 1) lining a 50 ml test tube. The paper was coated with 1.5 ml of corn oil as a sticker, blotted to remove excess oil, and then dusted with our pyriproxyfen powder formulation at 0.26 mg/cm of a.i. After ten minutes of exposure, males were transferred from the tube by aspirator to mating containers (450 ml capacity, 7.5 cm depth) covered with mosquito-proof mesh, and allowed to mate with uncontaminated females in pairs. […]
as §1, with “Each container held twenty 3rd instar Ae. albopictus. Test containers were incubated at 26° C. and 16L:8D photoperiod.” left out

[5] = tested on: 3rd instar Ae. albopictus; test: Cage experiment: transfer from females to larval habitat, larval bioassay; assay type: in vivo, Aedes albopictus; details: 2.2 m^3 cage, 50 gravid females, 5 days, all 36 ovicups; powder formulation on transfer mesh
Description: In the cage experiment, an autodissemination station equipped with a pyriproxyfen-treated transfer mesh and 450 ml of oak leaf infusion water was centered in a cubic 2.2 m^3 cage. A 360 ml capacity plastic cup was placed in each cage corner 15 cm from the walls. Each of the four cups was filled with 200 ml tap water and oviposition paper strips aligned as described above. Controls used a station with an untreated transfer mesh. Fifty gravid females were then introduced into the cage. After five days, the test was terminated, oviposition papers and eggs discarded, and containers were removed and the water assessed for pyriproxyfen transfer by larval bioassay (see ‘insecticide bioassays’ below). There were three treatment and one control cage per experiment and the experiment was repeated three times, providing a total of 36 test and 12 control ovicups for bioassay. […]
as §1, with “Each container held twenty 3rd instar Ae. albopictus. Test containers were incubated at 26° C. and 16L:8D photoperiod.” left out

Ae. albopictus [6] = details: reported as low as; Gaugler 2012, Sihuincha 2005; cited from earlier work
Ae. albopictus [7] = test: Attachment and persistence of IGR formulations assay, biphasic ADS (residue analysis and larval bioassay); assay type: in vivo, Aedes albopictus
Text: A biphasic autodissemination station (ADS) was developed to enhance attraction and contamination of gravid mosquitoes based on the previous version as described in the prior examples with modifications on the transfer chamber, which provided the attracted gravid mosquitoes a unidirectional path and biphasic formulations. The ADS consists of two main parts comprising of a water reservoir at the bottom (adapted from previous version), above which was a transfer chamber with a unidirectional cone inserted in the transfer chamber (FIGS. 12, A & B). The reservoir could hold 600 mL water, which contains dried shredded oak leaves and other materials producing attractants to the gravid mosquitoes. There were overflow protection holes located in the upper part of the reservoir as described in the previous examples. The transfer chamber was constructed with a cardboard mailing tube (101.5×155 mm; Office Depot, N.J. USA), a cotton mesh fabric (39 openings/cm^2) secured within the chamber base by hot glue, a vertical fabric band [43] (20 mm width) glued on top portion inside the transfer chamber and a horizontal flat ring (20 mm width) mounted on the top of the chamber (FIG. 12, B) to provide the base for powder band [46]. […] The spacer size was determined by preliminary study in which the gap size allowed maximum contamination of mosquitoes and minimum number of mosquitoes trapped. […]

gravid female = test: Serial transfer study, biphasic ADS; assay type: in vivo; details: right after it exited the ADS
Ae. aegypti adults = details: pyriproxyfen dusted plastic containers, public cemetery; cited from earlier work
gravid mosquitoes = test: Field studies, biphasic ADS; assay type: in vivo
Ae. albopictus [8] = test: Green house assay, biphasic ADS; assay type: in vivo, Aedes albopictus
Description: as §2
Green house with 2 bays (8×5×2.5 m each) was used for the semi-field assay. One ADS was positioned in the center of each bay and 6 Deli cups (450 mL, black painted from outside) containing 250 mL water each were setup as shown in FIG. 5 and 10% sugar solution was provided in a plastic cup with cotton wick. In each bay, 100 gravid mosquitoes (2 days post blood feeding) were released after the setup of ADS and oviposition containers. The containers were collected and sent for lab bioassay as described above after the 5 day experiment. […] The temperature of 22-30° C. and relative humidity of 45-70% were recorded during the experiment. […]
Efficacy of pyriproxyfen was expressed as mean + standard error % of pupal mortality, which was corrected with control using Abbott's formula (Abbott W. S. (1925) J Econ Entomol; 18: 265-267). […]

Question: What does the source list for `CC(COc1ccc(Oc2ccccc2)cc1)Oc1ccccn1` (stereo not drawn) [pyriproxyfen, 2-[1-methyl-2-(4-phenoxyphenoxy)ethoxy] pyridine]?
Answer: LC50 (Ae. albopictus [1]): 0.012 ppb; pupal mortality ([2]; 31 m^3 room, previous (uniphase) station, 4 oviposition containers with 200 ml water): 81%; smallest reduction in adult emergence among ovicups ([2]; 31.1 m^3 room): 75%; inhibition of adult emergence ([2]; 31.1 m^3 room, 50 gravid females, 5 days, 4 ovicups, powder formulation): 81.25%±2.39; LC50 (Aedes aegypti; Aedes aegypti L.): 0.023 ppb; LC50 (Aedes aegypti; reported as low as, Gaugler 2012, Sihuincha 2005): 0.012 ppb; activity relative to temephos (Aedes aegypti; times the activity of temephos): 200 ×; emergence inhibition in each cup (Ae. albopictus [3]; 31 m^3 room, 50 gravid females, 10 oviposition cups): 100%; pupal mortality in each of the 10 oviposition cups (Ae. albopictus [3]; 31.1 m^3 room, 50 gravid mosquitoes, 5 days): 100%; pupal mortality in each of the 10 oviposition cups (Ae. albopictus [3]; second prototype (oil and powder bands on one plate)): 100%; mortality (container mosquitoes): 40-70%; inhibition of emergence [4]: 48.33±5.87%; inhibition of adult emergence [5]: 100%; LC50 (Ae. albopictus [6]): 0.012 ppb; pupal mortality (Ae. albopictus [7]; 24 h post exposure): 96+1.7% and 96.7%; emergence inhibition (Ae. albopictus [7]; up to 8 h post exposure, one mosquito per 250 mL water): 100%; containers contaminated with 100% mortality by one gravid female (gravid female): at least 3 containers; emergence inhibition (Ae. aegypti adults): 42-98%; containers contaminated (gravid mosquitoes; different field study, 2012, variable pupal mortality): more than 60%; distance of pyriproxyfen transfer (gravid mosquitoes; field study): 200 m; pupal mortality (gravid mosquitoes; field study, container with 250 ml water at 200 m): 100%; average pupal mortality (Ae. albopictus [8]; 6 containers per bay (100 m^3), 100 gravid females, 5 days): 57.1+11.4% and 57.1%; containers to which pyriproxyfen was transferred (contamination rate) (Ae. albopictus [8]; 12 containers tested): 91.7% and 91.6%; pupal mortality of the cups with low mortality (Ae. albopictus [8]; cups in area with human disturbance, low RH, less shade): 0-30% and 10-30%
